Test results from patent US20230321100A1, “CD73 INHIBITOR AND APPLICATION THEREOF IN MEDICINE” (BETTA PHARMACEUTICALS CO., LTD, priority 2020, published 2023).

Each molecule was assayed against T1, CD73 (Calu-6 cells) (Homo sapiens, UniProt P21589) (assay: Enzymatic activity detection at the cellular level (Calu-6 cells, AMP substrate, Cell-titer Glo luminescence)). Details: enzymatic IC50 at the Calu-6 cell level, 30 min pre-incubation, 120 min at 37° C.
T1 construct: endogenous in cells; host or cells: Calu-6 cells
T1 sequence (P21589 27-549): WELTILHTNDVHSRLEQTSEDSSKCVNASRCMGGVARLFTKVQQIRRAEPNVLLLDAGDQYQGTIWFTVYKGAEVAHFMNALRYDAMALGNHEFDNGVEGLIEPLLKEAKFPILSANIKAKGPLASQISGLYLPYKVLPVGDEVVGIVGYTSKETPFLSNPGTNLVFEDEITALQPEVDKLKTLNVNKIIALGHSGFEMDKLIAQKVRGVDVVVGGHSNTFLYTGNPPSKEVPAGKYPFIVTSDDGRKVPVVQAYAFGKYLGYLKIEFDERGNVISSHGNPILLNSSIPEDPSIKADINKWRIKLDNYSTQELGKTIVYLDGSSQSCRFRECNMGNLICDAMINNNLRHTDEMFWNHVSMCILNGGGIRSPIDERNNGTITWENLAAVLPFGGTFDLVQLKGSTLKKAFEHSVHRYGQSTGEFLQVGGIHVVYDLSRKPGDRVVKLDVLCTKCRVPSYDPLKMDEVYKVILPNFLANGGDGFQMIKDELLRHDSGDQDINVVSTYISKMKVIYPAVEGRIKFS
Type: cell-based
Procedure: The Calu-6 cells were digested and re-suspended using TM buffer (25 mM Tris, 5 mM MgCl2, pH 7.5). Calu-6 cell suspension was seeded into 96 well cell culture plate, and the number of cells per well was 2.5×10^4, adding volume of 100 μL/well. Compound solution with gradient concentration was prepared by TM buffer, and 50 μL DMSO solution with different concentration was added into each pore cell. […] Pre-incubated in a shaker at 37° C. for 30 min. Each well was added with 50 μL 800 μM AMP solution. The shaker at 37° C. for 120 min was continued to incubate, then the 96-well plates were centrifuged and 50 μL supernatant was transferred to the new 96-well plates. […] The luminescence value was read by the multi-function enzymatic reader and converted into the inhibition percentage: Inhibition percentage=(1−reading/Max)*100. The “maximum value” was DMSO control. IC50 values were obtained by curve fitting with GraphPad Prism software.

| Compound | IC50 [nM] |
| --- | --- |
| C=Cc1nnc(-c2c[nH]c(=O)[nH]c2=O)cc1[C@H]1C[C@@H]1CC [Compound 1, 5-(5-((1S,2S)-2-ethylcyclopropyl)-6-vinylpyridazin-3-yl)pyrimidine-2,4(1H,3H)-dione] | 21.6 |
| C=C(C)c1nnc(-c2c[nH]c(=O)[nH]c2=O)cc1[C@H]1C[C@@H]1CC [Compound 2, 5-(5-((1S,2S)-2-ethylcyclopropyl)-6-(prop-1-en-2-yl)pyridazin-3-yl)pyrimidine-2,4(1H,3H)-dione] | 329 |
| CC[C@H]1C[C@@H]1c1cc(-c2c[nH]c(=O)[nH]c2=O)nnc1C1CC1 [Compound 3, 5-(6-cyclopropyl-5-((1S,2S)-2-ethylcyclopropyl)pyridazin-3-yl)pyrimidine-2,4(1H,3H)-dione] | 721 |
| C=C1CC(c2cc(-c3c[nH]c(=O)[nH]c3=O)nnc2Cl)C1 [Compound 4, 5-(6-chloro-5-(3-methylenecyclobutyl)pyridazin-3-yl)pyrimidine-2,4(1H,3H)-dione] | 22.6 |
| C=CC1CC1c1cc(-c2c[nH]c(=O)[nH]c2=O)nnc1C (centres unmarked) [Compound 6, 5-(6-methyl-5-(2-vinylcyclopropyl)pyridazin-3-yl)pyrimidine-2,4(1H,3H)-dione] | 50.7 |
| C=C[C@H]1C[C@@H]1c1cc(-c2c[nH]c(=O)[nH]c2=O)nnc1C [Compound 7, 5-(6-methyl-5-((1S,2R)-2-vinylcyclopropyl)pyridazin-3-yl)pyrimidine-2,4(1H,3H)-dione] | 21 |
| C/C=C/[C@H]1C[C@@H]1c1cc(-c2c[nH]c(=O)[nH]c2=O)nnc1C [Compound 8, 5-(6-methyl-5-((1S,2R)-2-((E)-prop-1-en-1-yl)cyclopropyl)pyridazin-3-yl)pyrimidine-2,4(1H,3H)-dione] | 92.7 |
| Cc1nnc(-c2c[nH]c(=O)[nH]c2=O)cc1[C@H]1C[C@@H]1/C=C/C1CC1 [Compound 9, 5-(5-((1S,2R)-2-((E)-2-cyclopropylvinyl)cyclopropyl)-6-methylpyridazin-3-yl)pyrimidine-2,4(1H,3H)-dione] | 200 |
| Cc1nnc(-c2c[nH]c(=O)[nH]c2=O)cc1[C@H]1C[C@@H]1/C=C/C#N [Compound 10, (E)-3-((1R,2S)-2-(6-(2,4-dioxo-1,2,3,4-tetrahydropyrimidin-5-yl)-3-methylpyridazin-4-yl)cyclopropyl)acrylonitrile] | 31 |
| Cc1nnc(-c2c[nH]c(=O)[nH]c2=O)cc1[C@H]1C[C@@H]1C=C(F)F [Compound 11, 5-(5-((1S,2S)-2-(2,2-difluorovinyl)cyclopropyl)-6-methylpyridazin-3-yl)pyrimidine-2,4(1H,3H)-dione] | 46 |
| Cc1nnc(-c2c[nH]c(=O)[nH]c2=O)cc1[C@H]1C[C@@H]1/C=C/c1ccccc1 [Compound 16, 5-(6-methyl-5-((1S,2R)-2-((E)-styryl)cyclopropyl)pyridazin-3-yl)pyrimidine-2,4(1H,3H)-dione] | 2.3 |
| N#Cc1ccc(/C=C/[C@H]2C[C@@H]2c2cc(-c3c[nH]c(=O)[nH]c3=O)nnc2Cl)cc1 [Compound 17, 4-((E)-2-((1R,2S)-2-(3-chloro-6-(2,4-dioxo-1,2,3,4-tetrahydropyrimidin-5-yl)pyridazin-4-yl)cyclopropyl)vinyl)benzonitrile] | 2.3 |
| O=c1[nH]cc(-c2cc([C@H]3C[C@@H]3C#Cc3ccccc3)c(Cl)nn2)c(=O)[nH]1 [Compound 18, 5-(6-chloro-5-((1S,2S)-2-(phenylethynyl)cyclopropyl)pyridazin-3-yl)pyrimidine-2,4(1H,3H)-dione] | 5.6 |
| N#Cc1cccc(C#C[C@H]2C[C@@H]2c2cc(-c3c[nH]c(=O)[nH]c3=O)nnc2Cl)c1 [Compound 19, 3-(((1S,2S)-2-(3-chloro-6-(2,4-dioxo-1,2,3,4-tetrahydropyrimidin-5-yl)pyridazin-4-yl)cvclopropyl)ethynyl)benzonitrile] | 2.99 |
| COc1nnc(-c2c[nH]c(=O)[nH]c2=O)cc1[C@H]1C[C@@H]1/C=C/c1ccccc1 [Compound 20, 5-(6-methoxy-S-((1S,2R)-2-((E)-styryl)cyclopropyl)pyridazin-3-yl)pyrimidine-2,4(1H,3H)-dione] | 1.2 |
| COc1nnc(-c2c[nH]c(=O)[nH]c2=O)cc1[C@H]1C[C@@H]1C#Cc1ccccc1 [Compound 21, 5-(6-methoxy-S-((1S,2S)-2-(phenylethynyl)cyclopropyl)pyridazin-3-yl)pyrimidine-2,4(1H,3H)-dione] | 5.5 |
| Cc1nnc(-c2c[nH]c(=O)[nH]c2=O)cc1C1CC1c1ccccc1 (centres unmarked) [Compound 22, 5-(6-methyl-5-(2-phenylcyclopropyl)pyridazin-3-yl)pyrimidine-2,4(1H,3H)-dione] | 22.7 |
| O=c1[nH]cc(-c2cc(C3CC3c3ccccc3)c(Cl)nn2)c(=O)[nH]1 (centres unmarked) [Compound 23, 5-(6-chloro-5-(2-phenylcyclopropyl)pyridazin-3-yl)pyrimidine-2,4(1H,3H)-dione] | 1.4 |
| Cc1ccc(C2CC2c2cc(-c3c[nH]c(=O)[nH]c3=O)nnc2Cl)cc1 (stereo not drawn) [Compound 24, 5-(6-chloro-S-(2-(p-tolyl)cyclopropyl)pyridazin-3-yl)pyrimidine-2,4(1H,3H)-dione] | 5.2 |
| N#Cc1ccc(C2CC2c2cc(-c3c[nH]c(=O)[nH]c3=O)nnc2Cl)cc1 (centres unmarked) [Compound 25, 4-(2-(3-chloro-6-(2,4-dioxo-1,2,3,4-tetrahydropyrimidin-5-yl)pyridazin-4-yl)cyclopropyl)benzonitrile] | 1.8 |
| N#Cc1cccc(C2CC2c2cc(-c3c[nH]c(=O)[nH]c3=O)nnc2Cl)c1 (centres unmarked) [Compound 26, 3-(2-(3-chloro-6-(2,4-dioxo-1,2,3,4-tetrahydropyrimidin-5-yl)pyridazin-4-yl)cyclopropyl)benzonitrile] | 8.7 |

Further lines, results first:

| IC50 [nM] | Compound |
| --- | --- |
| 1.8 | O=c1[nH]cc(-c2cc(C3CC3c3ccc(F)cc3)c(Cl)nn2)c(=O)[nH]1 (centres unmarked) [Compound 27, 5-(6-chloro-5-(2-(4-fluorophenyl)cyclopropyl)pyridazin-3-yl)pyrimidine-2,4(1H,3H)-dione] |
| 2.7 | O=c1[nH]cc(-c2cc(C3CC3c3ccc(Cl)cc3)c(Cl)nn2)c(=O)[nH]1 (centres unmarked) [Compound 28, 5-(6-chloro-5-(2-(4-chlorophenyl)cyclopropyl)pyridazin-3-yl)pyrimidine-2,4(1H,3H)-dione] |
| 4.1 | COc1cccc(C2CC2c2cc(-c3c[nH]c(=O)[nH]c3=O)nnc2Cl)c1 (centres unmarked) [Compound 29, 5-(6-chloro-5-(2-(3-methoxyphenyl)cyclopropyl)pyridazin-3-yl)pyrimidine-2,4(1H,3H)-dione] |
| 60 | O=c1[nH]cc(-c2cc(C3CC3c3cccc4ccccc34)c(Cl)nn2)c(=O)[nH]1 (stereo not drawn) [Compound 30, 5-(6-chloro-S-(2-(naphthalen-1yl)cyclopropyl)pyridazin-3-yl)pyrimidine-2,4(1H,3H)-dione] |
| 4.2 | COc1nnc(-c2c[nH]c(=O)[nH]c2=O)cc1C1CC1c1ccccc1 (centres unmarked) [Compound 31, 5-(6-methoxy-5-(2-phenylcyclopropyl)pyridazin-3-yl)pyrimidine-2,4(1H,3H)-dione] |
| 5.4 | COc1nnc(-c2c[nH]c(=O)[nH]c2=O)cc1C1CC1c1ccc(F)cc1 (centres unmarked) [Compound 32, 5-(5-(2-(4-fluorophenyl)cyclopropyl)-6-methoxypyridazin-3-yl)pyrimidine-2,4(1H,3H)-dione] |
| 3.9 | COc1nnc(-c2c[nH]c(=O)[nH]c2=O)cc1C1CC1c1ccc(Cl)cc1 (centres unmarked) [Compound 33, 5-(5-(2-(4-chlorophenyl)cyclopropyl)-6-methoxypyridazin-3-yl)pyrimidine-2,4(1H,3H)-dione] |
| 5.9 | N#Cc1nnc(-c2c[nH]c(=O)[nH]c2=O)cc1C1CC1c1ccccc1 (centres unmarked) [Compound 34, 6-(2,4-dioxo-1,2,3,4-tetrahydropyrimidin-5-yl)-4-(2-phenylcyclopropyl)pyridazine-3-carbonitrile] |
| 1.1 | N#Cc1nnc(-c2c[nH]c(=O)[nH]c2=O)cc1C1CC1c1ccc(F)cc1 (centres unmarked) [Compound 35, 6-(2,4-dioxo-1,2,3,4-tetrahydropyrimidin-5-yl)-4-(2-(4-fluorophenyl)cyclopropyl)pyridazine-3-carbonitrile] |
| 1.9 | N#Cc1nnc(-c2c[nH]c(=O)[nH]c2=O)cc1C1CC1c1ccc(Cl)cc1 (centres unmarked) [Compound 36, 4-(2-(4-chlorophenyl)cyclopropyl)-6-(2,4-dioxo-1,2,3,4-tetrahydropyrimidin-5-yl)pyridazine-3-carbonitrile] |
| 1.2 | O=c1[nH]cc(-c2cc([C@H]3C[C@@H]3C#Cc3ccncc3)c(Cl)nn2)c(=O)[nH]1 [Compound 37, 5-(6-chloro-5-((1S,2S)-2-(pyridin-4-ylethynyl)cyclopropyl)pyridazin-3-yl)pyrimidine-2,4(1H, 3H)-dione] |
